From patent US6127342A, “Method for preventing or treating a lung disease caused by active oxygen and free radical injury” (Teijin Limited, priority 1991, dated 2000)

Key:
Assay type in all cases: in vivo
[1] = tested on: liver tissue mitochondria; experiment: Liver tissue mitochondrial function in liver ischemia-reperfusion; conditions: rat, 50 mg/kg i.v. before ischemia, FIGS. 2A and 2B; for effect on recovery of liver mitochondrial function during reperfusion: 1 h reperfusion; for effect on reduction of liver mitochondrial St. III O2 caused by ischemia: 2 h ischemia
Experimental: (§1) Male Wister rats weighing 250-300 g were fasted with free access to water 24 hours before the experiment. Seventy-two rats were divided into three groups of 24 animals each, i.e., the control group, the GSH administration group and the γ-GCE-administration group. Each rat was anesthetized by intraperitoneal administration of 40 mg/0.8 ml/kg of sodium pentobarbital, and the femoral vein was cannulated. In the GSH group and the γ-GCE group, 50 mg/kg of GSH or γ-GCE respectively were administered intravenously. Physiological saline was then infused for volume replacement in each group, as a continuous intravenous infusion at a rate of 0.8 ml/hr with an injection pump throughout the experiment. Thirty minutes after starting injection of physiological saline, the abdomon was opened by a midline incision and the liver hilus was exposed. According to the method described by Hasselgren, et al. in J. Surg. Res., Vol. 34, pp. 409-414, 1984, all vessels to the left and median lobes of the liver, more specifically, hepatic artery, portal vein and the bile duct, were clamped to produce an ischemic state for 2 hours. Since blood vessels to the remaining parts of the liver were not occluded by this method, poral stasis could be avoided which was of special relevance for circulation stability in rats. Thereafter, occlusion of all vessels was released by removing the clamp to allow reperfusion for 1 hour. The abdominal walls were closed during ischemia and reperfusion. […]
(§2) Evaluation of ischemia-reperfusion injury was performed by measuring liver tissue (1) mitochondrial function, (2) glutathione concentration, (3) adenine nucleotides concentration, and (4) lipid peroxide concentration, as well as liver tissue derived (5) adenine nucleotides concentration in the hepatic vein immediately after starting reperfusion, and (6) liver cell enzyme activities in the blood after 1 hour of reperfusion. More specifically, the mitochondrial function in (1) was measured according to the method described by Chance, et al. in Adv. […] In addition, the quantitative determination of glutathione in (2) was performed using the same method as Experiment 1 on supernatant obtained by adding 10 vol/g of tissue weight of 2.5% (w/v) sulfosalicylic acid dihydrate aqueous solution to the liver tissue followed by homogenization and centrifugation. In addition, the quantitative determination of adenine nucleotides in (3) was performed by neutralizing the perchloric acid extract of the liver tissue with potassium hydroxide followed by removal of the precipitate and applying to an ion exchange HPLC column according to the method described by Sugino, et al. in J. Chromatogr., Vol. 361, pp. 427-431, 1986. […]

[2] = tested on: coronary ischemia-reperfusion model using dogs; experiment: Mortality during coronary ischemia-reperfusion in dogs; conditions: dog; for Mortality rate (number of dogs that died / number of dogs in experiment), 1 hour of reperfusion: 1 hour of reperfusion after 10 mg/kg i.v. just before reperfusion; for Mortality rate (number of dogs that died / number of dogs in experiment), 2 hours of ischemia: before the drug was given (10 mg/kg i.v. just before reperfusion)
Experimental: After anesthetizing 52 adult mongrel dogs of either sex weighing ca. 10 kg by intraperitoneal administration of 50 mg/kg of sodium pentobarbital, breathing tubes were immediately intubated endotracheally and artificial ventilation was continued using a Harvard ventilator. Electrocardiogram electrodes were attached, and monitoring and recording were continued throughout the experiment. Following insertion of cannulas in the right femoral vein and right femoral artery, the cannulas were used for continuous intravenous drip of physiological saline to replenish water or administration of the test preparation, and monitoring of arterial blood pressure, respectively. After performing left thoracotomy in the fourth or fifth intercostal space, the pericardium was torn to expose the heart. Ischemia was induced by ligating the left anterior descending coronary artery immediately distal to the first diagonal branch, while reperfusion was performed by subsequently removing that ligation.
The animals were divided into four groups. Group 1 (n=9) was subjected to ischemia for 2 hours, group 2 (n=17) was subjected to ischemia for 2 hours followed by reperfusion for 1 hour, group 3 (n=10) was subjected to ischemia for 2 hours followed by reperfusion for 1 hour plus intravenous injection of 10 mg/kg of γ-GCE just before reperfusion, and group 4 (n=16) was subjected to 2 hours of ischemia followed by 1 hour of reperfusion plus intravenous injection of 10 mg/kg of reduced glutathione (GSH, control drug) just before reperfusion.

[3] = tested on: liver ischemia-reperfusion model using rats; experiment: Liver lipid peroxide concentration (thiobarbiturate method); conditions: rat; 50 mg/kg i.v.; after 1 hour reperfusion
Experimental: Male Wister rats weighing 250-300 g were fasted with free access to water 24 hours before the experiment. Seventy-two rats were divided into three groups of 24 animals each, i.e., the control group, the GSH administration group and the γ-GCE-administration group. Each rat was anesthetized by intraperitoneal administration of 40 mg/0.8 ml/kg of sodium pentobarbital, and the femoral vein was cannulated. In the GSH group and the γ-GCE group, 50 mg/kg of GSH or γ-GCE respectively were administered intravenously. Physiological saline was then infused for volume replacement in each group, as a continuous intravenous infusion at a rate of 0.8 ml/hr with an injection pump throughout the experiment. Thirty minutes after starting injection of physiological saline, the abdomon was opened by a midline incision and the liver hilus was exposed. […]
Evaluation of ischemia-reperfusion injury was performed by measuring liver tissue (1) mitochondrial function, (2) glutathione concentration, (3) adenine nucleotides concentration, and (4) lipid peroxide concentration, as well as liver tissue derived (5) adenine nucleotides concentration in the hepatic vein immediately after starting reperfusion, and (6) liver cell enzyme activities in the blood after 1 hour of reperfusion. More specifically, the mitochondrial function in (1) was measured according to the method described by Chance, et al. in Adv. […]

[4] = tested on: liver ischemia-reperfusion model using rats; experiment: Serum AST, ALT and LDH after 1 hour of reperfusion; conditions: rat; 50 mg/kg i.v.
Experimental: Male Wister rats weighing 250-300 g were fasted with free access to water 24 hours before the experiment. Seventy-two rats were divided into three groups of 24 animals each, i.e., the control group, the GSH administration group and the γ-GCE-administration group. Each rat was anesthetized by intraperitoneal administration of 40 mg/0.8 ml/kg of sodium pentobarbital, and the femoral vein was cannulated. In the GSH group and the γ-GCE group, 50 mg/kg of GSH or γ-GCE respectively were administered intravenously. Physiological saline was then infused for volume replacement in each group, as a continuous intravenous infusion at a rate of 0.8 ml/hr with an injection pump throughout the experiment. Thirty minutes after starting injection of physiological saline, the abdomon was opened by a midline incision and the liver hilus was exposed. According to the method described by Hasselgren, et al. in J. Surg. Res., Vol. 34, pp. 409-414, 1984, all vessels to the left and median lobes of the liver, more specifically, hepatic artery, portal vein and the bile duct, were clamped to produce an ischemic state for 2 hours. Since blood vessels to the remaining parts of the liver were not occluded by this method, poral stasis could be avoided which was of special relevance for circulation stability in rats. Thereafter, occlusion of all vessels was released by removing the clamp to allow reperfusion for 1 hour. The abdominal walls were closed during ischemia and reperfusion.
Using 18 rats in each group, the livers of 6 animals from each group were removed before ischemia, after 2 hours of ischemia, and after 1 hour of reperfusion, respectively. A portion of the liver from each animal was rapidly frozen in liquid nitrogen and used for measurement of glutathione,adenine nucleotides and lipid peroxide. From the remaining portion of the liver, mitochondria was immediately extracted according to the method described by Hogeboom and Schneider in the J. Biol. Chem., Vol. 172, p. 619, 1948. In other experiments, immediately after starting reperfusion, blood from the hepatic vein was collected using 6 rats from each group. These blood samples were then used to measure leaked adenine nucleotides. In addition, after 1 hour of said reperfusion, blood samples were also drawn, which were then used to measure the activity of the leaked liver cell enzymes.
Evaluation of ischemia-reperfusion injury was performed by measuring liver tissue (1) mitochondrial function, (2) glutathione concentration, (3) adenine nucleotides concentration, and (4) lipid peroxide concentration, as well as liver tissue derived (5) adenine nucleotides concentration in the hepatic vein immediately after starting reperfusion, and (6) liver cell enzyme activities in the blood after 1 hour of reperfusion. More specifically, the mitochondrial function in (1) was measured according to the method described by Chance, et al. in Adv. Enzymol., Vol. 17, p. 65, 1956. In addition, the quantitative determination of glutathione in (2) was performed using the same method as Experiment 1 on supernatant obtained by adding 10 vol/g of tissue weight of 2.5% (w/v) sulfosalicylic acid dihydrate aqueous solution to the liver tissue followed by homogenization and centrifugation. In addition, the quantitative determination of adenine nucleotides in (3) was performed by neutralizing the perchloric acid extract of the liver tissue with potassium hydroxide followed by removal of the precipitate and applying to an ion exchange HPLC column according to the method described by Sugino, et al. in J. Chromatogr., Vol. 361, pp. 427-431, 1986. In addition, the measurement of lipid peroxide in (4) was performed according to the thiobarbiturate method described by Ohkawa, et al. in Anal. Biochem., Vol. 95, p. 351, 1979. […]

[5] = tested on: cardiac muscle mitochondria; experiment: Cardiac muscle mitochondrial function (St. III O2, RCI) after coronary ischemia-reperfusion; conditions: dog; 10 mg/kg i.v. just before reperfusion; FIGS. 1A and 1B
Text: Electrocardiogram electrodes were attached, and monitoring and recording were continued throughout the experiment. Following insertion of cannulas in the right femoral vein and right femoral artery, the cannulas were used for continuous intravenous drip of physiological saline to replenish water or administration of the test preparation, and monitoring of arterial blood pressure, respectively. After performing left thoracotomy in the fourth or fifth intercostal space, the pericardium was torn to expose the heart. Ischemia was induced by ligating the left anterior descending coronary artery immediately distal to the first diagonal branch, while reperfusion was performed by subsequently removing that ligation. The animals were divided into four groups. […] Mitochondria was obtained by removing the heart immediately after the end of ischemia or reperfusion, washing with cold physiological saline, promptly cutting out the ischemic or reperfused area and the normal area, and immediately performing preparation from the respective area according to the method described by […], et al. in Arch. Biochem. Biophys., Vol. 94, pp. 148-155, 1961. The glutathione content of the mitochondria was measured by applying the method described by Tietze in Anal. […] Evaluation of mitochondrial function was performed according to the method described by Sugiyama, et al. in Am. […]

[6] = tested on: liver ischemia-reperfusion model using rats; experiment: Adenine nucleotides in hepatic vein immediately after starting reperfusion; conditions: rat; 50 mg/kg i.v.
Experimental: as §1, §2

[7] = 10 mg/kg i.v. just before reperfusion

| SMILES | effect on recovery of liver mitochondrial function during reperfusion [1] | effect on reduction of liver mitochondrial St. III O2 caused by ischemia [1] | mortality rate during reperfusion [2, 7] | Mortality rate (number of dogs that died / number of dogs in experiment), 1 hour of reperfusion [2] | Mortality rate (number of dogs that died / number of dogs in experiment), 2 hours of ischemia [2] | Concentration of liver lipid peroxide following reperfusion [3] [nmol/mg protein] | Serum ALT after 1 hour of reperfusion [4] [IU/L] | Serum AST after 1 hour of reperfusion [4] [IU/L] | Serum LDH after 1 hour of reperfusion [4] [IU/L] | effect on leakage of liver cell enzymes into the blood following 1 hour of reperfusion [4] | effect on reduction in cardiac muscle mitochondrial function (St. III O2, RCI) during reperfusion [5] | Adenine nucleotides concentration in hepatic vein immediately after starting reperfusion [6] [μmol/L serum] | reduction of leakage of adenine nucleotides into the hepatic vein immediately after starting reperfusion [6] | animals died due to ventricular fibrillation during reperfusion [2, 7] | effect on leakage of adenine nucleotides into the hepatic vein [6] |
| --- | --- | --- | --- | --- | --- | --- | --- | --- | --- | --- | --- | --- | --- | --- | --- |
| CCOC(=O)[C@H](CS)NC(=O)CC[C@H](N)C(=O)O [γ-GCE, γ-L-glutamyl-L-cysteine ethyl ester] | significantly promoted recovery of mitochondrial function during reperfusion | significantly suppressed reduction of St. III O2 caused by ischemia | 0 | 0/8 | 2/10 | 6.56±0.6 | 924 ± 330 | 2071 ± 625 | 14678 ± 2763 | significantly reduced leakage of enzymes from liver cells | completely suppressed | 1.96 ± 0.80 | over 50% |  |  |
| N[C@@H](CCC(=O)N[C@@H](CS)C(=O)NCC(=O)O)C(=O)O [GSH, reduced glutathione, reference compound] | did not show any protective effects whatsoever | did not show any protective effects whatsoever |  | 7/15 | 1/16 | 9.1±2.0 | 2337 ± 571 | 3914 ± 1102 | 26435 ± 12191 | did not significantly mitigate the leakage | no protective effects were observed whatsoever | 3.59 ± 1.28 |  | ca. 50% | did not significantly mitigate the leakage |
